Experimental data: patent publication US20200171159A1, “SELECTIVE DESTRUCTION OF CELLS” (priority 2017, published 2020)
Entries after “also recorded” stand apart in the source; their conditions may differ.

Assays:
H1975 cells [1] = assay: Cell survival with LV-scFvCD24 and INr2 peptide, Example 3; format: cell-based, human; conditions: with peptide and LV-scFvCD24 particles
Experimental: The expression of CD24 in H1975 cells was evaluated by Flow cytometry. Briefly, approximately 1×10^6 cells were used in each experiment. Fluorescein isothiocyanate (FITC)—labeled humanized anti-human CD24 antibodies were used. Detection of bound antibodies was performed on a Cube6 and results were analyzed with the FCS express program. The lentivirus used was anti-CD24 scFv in an MOI of 30. The LentiBoost™ concentration used was 1:100 buffer A+1:100 buffer B (+spinoculation). The INr2 peptide was used in a concentration of 30 μM. FIG. 3A depicts the fluorescence (count) of the tested cells (Left—negative control, only secondary antibody; Right—duplicates of cells expressing CD24 after first and second-FITC antibodies). […] FIG. 3C is a schematic illustration of the of the experiment timeline. […] Particles were added on days 1, 4 and 7 as well.

H1975 cells [2] = assay: Cell survival, enzymatic MTT assay, Example 2; conditions: with INS peptide and LV-scFvCD24 particles
Experimental: Cell line “H1975” cells were seeded in 96-well plates (2000 cells/well). […] Particles were added on day 2.

1975 lung cancer cells = assay: Cell survival, enzymatic MTT assay, Example 5; format: cell-based, human; conditions: 1975 cells
[3] = system: BT549 breast cancer cells; assay: Cell survival, enzymatic MTT assay, Example 5; format: cell-based, human
[4] = cited from earlier work
HIV-1 = conditions: cited from earlier work
IN-Rev interaction = IN-Rev interaction (Human immunodeficiency virus type 1 group M subtype B, UniProt P04618); conditions: cited from earlier work
Chain of IN-Rev interaction (P04618 whole entry, looked up): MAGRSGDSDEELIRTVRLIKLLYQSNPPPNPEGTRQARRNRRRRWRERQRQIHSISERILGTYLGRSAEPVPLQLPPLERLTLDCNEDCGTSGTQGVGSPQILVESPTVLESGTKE

IN = target: T1, IN (Human immunodeficiency virus type 1 group M subtype B, UniProt P12497); conditions: listed as INS; cited from earlier work
T1 construct: Stimulation of the HIV-1 Integrase Enzymatic Activity and cDNA Integration by a Peptide Derived from the Integrase Protein

viral Integrase enzyme = viral Integrase enzyme (Human immunodeficiency virus type 1 group M subtype B, UniProt P12497); assay: Integrase stimulation in viral infected cells, Example 4; format: cell-based
Experimental: (§1) Integrase derived peptides (designated as INS) were synthesized as well as control peptide. Humanized Anti-CD24 antibody fragment (scFv) was engineered and fused to the lentivirus envelope. Cell death was measured qualitatively by using fluorescent microscopy and was quantified by the enzymatic MTT assay. Human colorectal cells (DLD1, colorectal adenocarcinoma, FIG. 4A) and breast cancer cells (MCF7, Human breast adenocarcinoma, FIG. 4B) were used for testing the potency of the lentiviral-based system.

[5] = system: MCF7, Human breast adenocarcinoma; assay: Cell death of lentivirus-infected cells, fluorescent microscopy and MTT assay, Example 4; format: cell-based; conditions: MCF7 infected with CD24-targeted lentivirus; compared to the control peptide
Experimental: as §1

HIV-1 integrase = target: T2, HIV-1 integrase (Human immunodeficiency virus type 1 group M subtype B, UniProt P12497); assay: Integrase activity in test tubes (HIV-1 integrase assay kit); format: biochemical
T2 construct: purchased
Experimental: The ability of INS to increase the activity of HIV-1 integrase was tested using the HIV-1 integrase assay kit.

[6] = system: DLD1, colorectal adenocarcinoma; assay: Cell death of lentivirus-infected cells, fluorescent microscopy and MTT assay, Example 4; format: cell-based, human; conditions: DLD1 infected with CD24-targeted lentivirus; compared to the control peptide
Experimental: as §1

| Molecule | effect of Raltegravir on the decrease in survival (H1975 cells [1]) | effect of Raltegravir on the decrease in survival (H1975 cells [2]) | effect of Raltegravir on the decrease in survival (1975 lung cancer cells) | effect of Raltegravir on the decrease in survival [3] | cell permeability [4] | virus infectivity (HIV-1) | IN-Rev interaction (IN-Rev interaction) | direct effect on IN activity (IN) | stimulation of the viral Integrase enzyme (viral Integrase enzyme) | cell death [5] | stimulation of the viral Integrase enzyme (HIV-1 integrase) | cell death [6] |
| --- | --- | --- | --- | --- | --- | --- | --- | --- | --- | --- | --- | --- |
| Cc1nnc(C(=O)NC(C)(C)c2nc(C(=O)NCc3ccc(F)cc3)c(O)c(=O)n2C)o1 [Raltegravir] | ameliorated | ameliorated | ameliorated | ameliorated |  |  |  |  |  |  |  |  |
| WGSNFTSTTVKA [INr2] |  |  |  |  | cell-permeable | stimulated virus infectivity | abrogated |  |  |  |  |  |
| WTAVQMAVFIHNFKRK [INS peptide] |  |  |  |  | cell-permeable | stimulated virus infectivity | abrogated | directly activates the free IN; also recorded: direct stimulatory effect | able to stimulate | Massive cell death | able to stimulate | Massive cell death |
| WTHLEGKIILVAVHVA [INr1] |  |  |  |  | cell-permeable | stimulated virus infectivity | abrogated |  |  |  |  |  |
